From BindingDB's records for doi:10.1016/j.bmc.2012.05.002 (Seoul National University, 2012)

Target: T1, Sortase family protein (Staphylococcus aureus, UniProt Q9S446)
T1 sequence (Q9S446 whole entry): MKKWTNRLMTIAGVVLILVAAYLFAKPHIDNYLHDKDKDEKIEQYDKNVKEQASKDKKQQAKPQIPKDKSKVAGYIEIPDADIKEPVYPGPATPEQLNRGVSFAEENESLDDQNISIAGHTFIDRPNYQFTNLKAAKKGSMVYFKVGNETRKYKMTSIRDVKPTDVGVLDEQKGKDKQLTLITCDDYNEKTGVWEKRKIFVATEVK
Assay: Inhibition of Staphylococcus aureus ATCC 6538p recombinant SrtA

Compound: O=C(O)c1cc[c]([Hg][OH])cc1
- IC50: 112 µM
